# Results taken from patent US10730874B2 (Shire Human Genetic Therapies, Inc., priority 2018, dated 2020).
# Biological target: human activated kallikrein enzyme (plasma kallikrein) (Homo sapiens (Human), UniProt P03952)
# Assay: Inhibition of human activated plasma kallikrein, fluorogenic peptide substrate assay, 500 pM enzyme format
# Format: biochemical
# Details: 500 pM activated kallikrein enzyme, 300 uM Pro-Phe-Arg-7-amido-4-methylcoumarin substrate, 30 min preincubation, 10 min at RT; read-out: Primary Dose Response Assay: Average EC50
# Procedure, shortened: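 Buffer 20 mM Tris pH 7.5, EDTA, NaCl, PEG-400, Triton X-100; 300 uM Pro-Phe-Arg-AMC; enzyme–inhibitor preincubation 30 min RT. Format one: 500 pM kallikrein, 10 min RT reaction; format two: 5 pM kallikrein, 18 h RT reaction. Fluorescence read at 460 nm (380 nm excitation).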
# human activated kallikrein enzyme (plasma kallikrein), sequence (P03952 391-638): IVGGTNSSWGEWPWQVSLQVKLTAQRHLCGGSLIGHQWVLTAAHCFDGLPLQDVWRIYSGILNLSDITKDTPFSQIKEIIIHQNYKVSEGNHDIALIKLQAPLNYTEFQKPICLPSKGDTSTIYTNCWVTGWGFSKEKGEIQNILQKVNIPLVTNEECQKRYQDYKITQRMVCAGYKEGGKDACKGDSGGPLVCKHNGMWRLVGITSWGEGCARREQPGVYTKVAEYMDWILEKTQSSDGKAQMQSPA
# human activated kallikrein enzyme (plasma kallikrein), sequence (P03952 20-390 partner): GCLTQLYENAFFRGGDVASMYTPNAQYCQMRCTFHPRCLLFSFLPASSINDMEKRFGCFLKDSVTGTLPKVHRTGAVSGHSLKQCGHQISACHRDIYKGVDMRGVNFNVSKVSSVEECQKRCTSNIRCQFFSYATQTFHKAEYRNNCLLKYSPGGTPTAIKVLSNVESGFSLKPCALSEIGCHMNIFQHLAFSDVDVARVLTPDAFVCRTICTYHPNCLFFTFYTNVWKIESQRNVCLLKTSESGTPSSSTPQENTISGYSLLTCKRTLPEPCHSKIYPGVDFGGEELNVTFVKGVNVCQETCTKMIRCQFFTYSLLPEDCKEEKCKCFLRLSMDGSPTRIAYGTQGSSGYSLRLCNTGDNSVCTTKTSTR
row,EC50 [nM],Structure (SMILES)
1,< 1,"Cc1ncn(-c2cc(C3CC3)cn3cc(Cn4cc(C(=O)NCc5ncn6ccc(Cl)c(F)c56)nn4)nc23)n1 [Example I-258, N-((7-chloro-8-fluoroimidazo[1,5-a]pyridin-1-yl)methyl)-1-((6-cyclopropyl-8-(3-methyl-1H-1,2,4-triazol-1-yl)imidazo[1,2-a]pyridin-2-yl)methyl)-1H-1,2,3-triazole-4-carboxamide]"
2,< 1,"CC(C)(Cc1cc(C2CC2)cn2cc(Cn3cc(C(=O)NCc4ncn5ccc(Cl)c(F)c45)nn3)nc12)C(=O)O [Example I-206, 3-(2-((4-(((7-chloro-8-fluoroimidazo[1,5-a]pyridin-1-yl)methyl)carbamoyl)-1H-1,2,3-triazol-1-yl)methyl)-6-cyclopropylimidazo[1,2-a]pyridin-8-yl)-2,2-dimethylpropanoic acid]"
3,< 1,"O=C(NCc1ncn2ccc(Cl)cc12)c1cnn(Cc2cn3cc(C4CC4)cc(N4CCCC4=O)c3n2)c1 [Example I-114, N-((7-chloroimidazo[1,5-a]pyridin-1-yl)methyl)-1-((6-cyclopropyl-8-(2-oxopyrrolidin-1-yl)imidazo[1,2-a]pyridin-2-yl)methyl)-1H-pyrazole-4-carboxamide]"
4,< 1,"CN(C)CCOCc1cc(C2CC2)cn2cc(Cn3cc(C(=O)NCc4ncn5ccc(Cl)c(F)c45)nn3)nc12 [Example I-299, N-((7-chloro-8-fluoroimidazo[1,5-a]pyridin-1-yl)methyl)-1-((6-cyclopropyl-8-((2-(dimethylamino)ethoxy)methyl)imidazo[1,2-a]pyridin-2-yl)methyl)-1H-1,2,3-triazole-4-carboxamide]"
5,100 to 2000,"O=C(NCc1ncn2ccc(Cl)c(F)c12)c1cn(Cc2[nH]c3cc(C4CC4)ccc3c2C(=O)O)nn1 [Example I-274, 2-((4-(((7-chloro-8-fluoroimidazo[1,5-a]pyridin-1-yl)methyl)carbamoyl)-1H-1,2,3-triazol-1-yl)methyl)-6-cyclopropyl-1H-indole-3-carboxylic acid]"
6,< 1,"O=C(NCc1ncn2ccc(Br)cc12)c1cnn(Cc2cn3nc(C4CC4)ccc3n2)c1 [Example I-68, N-((7-bromoimidazo[1,5-a]pyridin-1-yl)methyl)-1-((6-cyclopropylimidazo[1,2-b]pyridazin-2-yl)methyl)-1H-pyrazole-4-carboxamide]"
7,< 1,"N#Cc1cc(C2CC2)cn2cc(Cn3cc(C(=O)NCc4ncn5ccc(Cl)c(F)c45)nn3)nc12 [Example I-149, N-((7-chloro-8-fluoroimidazo[1,5-a]pyridin-1-yl)methyl)-1-((8-cyano-6-cyclopropylimidazo[1,2-a]pyridin-2-yl)methyl)-1H-1,2,3-triazole-4-carboxamide]"
8,< 1,"O=C(NCc1ncn2ccc(Cl)cc12)c1nnc(Cc2cn3nc(C4CC4)ccc3n2)o1 [Example I-138, N-((7-chloroimidazo[1,5-a]pyridin-1-yl)methyl)-5-((6-cyclopropylimidazo[1,2-b]pyridazin-2-yl)methyl)-1,3,4-oxadiazole-2-carboxamide]"
9,10 to 100,"CCOC(=O)CC(c1cn2cc(C3CC3)ccc2n1)n1cc(C(=O)NCc2ncn3ccc(Cl)c(F)c23)nn1 (stereo not drawn) [Example I-227a, ethyl 3-(4-(((7-chloro-8-fluoroimidazo[1,5-a]pyridin-1-yl)methyl)carbamoyl)-1H-1,2,3-triazol-1-yl)-3-(6-cyclopropylimidazo[1,2-a]pyridin-2-yl)propanoate]"
10,10 to 100,"CC1(C)CC1c1ccn2cc(Cn3cc(C(=O)NCc4ncn5ccc(Br)cc45)cn3)nc2c1 (stereo not drawn) [Example I-49, N-((7-bromoimidazo[1,5-a]pyridin-1-yl)methyl)-1-((7-(2,2-dimethylcyclopropyl)imidazo[1,2-a]pyridin-2-yl)methyl)-1H-pyrazole-4-carboxamide]"
11,1 to 10,"O=C(NCc1ncn2ccc(Cl)cc12)c1cnn(Cc2cn3cc(C4CC4)c(F)cc3n2)c1 [Example I-21, N-((7-chloroimidazo[1,5-a]pyridin-1-yl)methyl)-1-((6-cyclopropyl-7-fluoroimidazo[1,2-a]pyridin-2-yl)methyl)-1H-pyrazole-4-carboxamide]"
12,< 1,"O=C(NCc1ncn2ccc(Cl)c(F)c12)c1cn(Cc2cn3cc(C4CC4)cc(CNCC(O)C(F)(F)F)c3n2)nn1 (stereo not drawn) [Example I-300, N-((7-chloro-8-fluoroimidazo[1,5-a]pyridin-1-yl)methyl)-1-((6-cyclopropyl-8-(((3,3,3-trifluoro-2-hydroxypropyl)amino)methyl)imidazo[1,2-a]pyridin-2-yl)methyl)-1H-1,2,3-triazole-4-carboxamide]"
13,10 to 100,"O=C(NCc1ncn2cc(F)c(Br)cc12)c1cnn(Cc2cn3cc(C4CC4)ccc3n2)c1 [Example I-151, N-((7-bromo-6-fluoroimidazo[1,5-a]pyridin-1-yl)methyl)-1-((6-cyclopropylimidazo[1,2-a]pyridin-2-yl)methyl)-1H-pyrazole-4-carboxamide]"

# The next lines start with the compound.
row,Structure (SMILES),EC50 [nM]
1,"O=C(NCc1ncn2ccc(Cl)cc12)c1cnn(Cc2cn3cc(C4CC4)ccc3n2)c1 [Example I-2, N-((7-chloroimidazo[1,5-a]pyridin-1-yl)methyl)-1-((6-cyclopropylimidazo[1,2-a]pyridin-2-yl)methyl)-1H-pyrazole-4-carboxamide]",< 1
2,"O=C(NCc1ncn2ccc(Cl)c(F)c12)c1cn(Cc2cn3cc(C4CC4)cc(-n4cnnc4)c3n2)nn1 [Example I-180, N-((7-chloro-8-fluoroimidazo[1,5-a]pyridin-1-yl)methyl)-1-((6-cyclopropyl-8-(4H-1,2,4-triazol-4-yl)imidazo[1,2-a]pyridin-2-yl)methyl)-1H-1,2,3-triazole-4-carboxamide]",< 1
3,"O=C(NCc1ncn2ccc(Cl)c(F)c12)c1cn(Cc2nc3cc(C4CC4)cc(Cl)n3n2)nn1 [Example I-255, 1-((5-chloro-7-cyclopropyl-[1,2,4]triazolo[1,5-a]pyridin-2-yl)methyl)-N-((7-chloro-8-fluoroimidazo[1,5-a]pyridin-1-yl)methyl)-1H-1,2,3-triazole-4-carboxamide]",< 1
4,"O=C(NCc1ncn2ccc(Cl)cc12)c1noc(Cc2cn3cc(C4CC4)ccc3n2)n1 [Example I-177, N-((7-chloroimidazo[1,5-a]pyridin-1-yl)methyl)-5-((6-cyclopropylimidazo[1,2-a]pyridin-2-yl)methyl)-1,2,4-oxadiazole-3-carboxamide]",1 to 10
5,"CC1(c2ccc3nc(Cn4cc(C(=O)NCc5ncn6ccc(Cl)cc56)cn4)cn3c2)CC1 [Example I-10, N-((7-chloroimidazo[1,5-a]pyridin-1-yl)methyl)-1-((6-(1-methylcyclopropyl)imidazo[1,2-a]pyridin-2-yl)methyl)-1H-pyrazole-4-carboxamide]",< 1
6,"N#Cc1cc(C2CC2)cn2cc(Cn3cc(C(=O)NCc4ncn5ccc(Cl)cc45)nn3)nc12 [Example I-112, N-((7-chloroimidazo[1,5-a]pyridin-1-yl)methyl)-1-((8-cyano-6-cyclopropylimidazo[1,2-a]pyridin-2-yl)methyl)-1H-1,2,3-triazole-4-carboxamide]",< 1
7,"O=C(NCc1ncn2ccc(Cl)c(F)c12)c1cn(Cc2cc3ccc(Cl)cc3o2)nn1 [Example I-197, N-((7-chloro-8-fluoroimidazo[1,5-a]pyridin-1-yl)methyl)-1-((6-chlorobenzofuran-2-yl)methyl)-1H-1,2,3-triazole-4-carboxamide]",100 to 2000
8,"O=C(NCc1ncn2ccc(Cl)cc12)c1nnc(Cc2cn3cc(C4CC4)ccc3n2)o1 [Example I-51, N-((7-chloroimidazo[1,5-a]pyridin-1-yl)methyl)-5-((6-cyclopropylimidazo[1,2-a]pyridin-2-yl)methyl)-1,3,4-oxadiazole-2-carboxamide]",< 1
9,"COC(=O)C1CN(c2cc(C3CC3)nn3cc(Cn4cc(C(=O)NCc5ncn6ccc(Cl)c(F)c56)nn4)nc23)C1 [Example I-265a, methyl 1-(2-((4-(((7-chloro-8-fluoroimidazo[1,5-a]pyridin-1-yl)methyl)carbamoyl)-1H-1,2,3-triazol-1-yl)methyl)-6-cyclopropylimidazo[1,2-b]pyridazin-8-yl)azetidine-3-carboxylate]",< 1
10,"O=C(NCc1ncn2ccc(Cl)c(F)c12)c1cn(Cc2cn3cc(C4CC4)cc(F)c3n2)nn1 [Example I-171, N-((7-chloro-8-fluoroimidazo[1,5-a]pyridin-1-yl)methyl)-1-((6-cyclopropyl-8-fluoroimidazo[1,2-a]pyridin-2-yl)methyl)-1H-1,2,3-triazole-4-carboxamide]",< 1
11,"CC1(C)CC1c1ccn2cc(Cn3cc(C(=O)NCc4ncn5ccc(Cl)cc45)cn3)nc2c1 (stereo not drawn) [Example I-41, N-((7-chloroimidazo[1,5-a]pyridin-1-yl)methyl)-1-((7-(2,2-dimethylcyclopropyl)imidazo[1,2-a]pyridin-2-yl)methyl)-1H-pyrazole-4-carboxamide]",10 to 100
12,"O=C(NCc1ncn2ccc(Cl)c(F)c12)c1cnn(Cc2cn3ccccc3n2)c1 [Example I-284, N-((7-chloro-8-fluoroimidazo[1,5-a]pyridin-1-yl)methyl)-1-(imidazo[1,2-a]pyridin-2-ylmethyl)-1H-pyrazole-4-carboxamide]",10 to 100
13,"O=C(NCc1ncn2ccc(Cl)c(F)c12)c1nnn(Cc2cn3cc(C4CC4)ccc3n2)n1 [Example I-283, N-((7-chloro-8-fluoroimidazo[1,5-a]pyridin-1-yl)methyl)-2-((6-cyclopropylimidazo[1,2-a]pyridin-2-yl)methyl)-2H-tetrazole-5-carboxamide]",< 1
14,"C#Cc1cc(C2CC2)cn2cc(Cn3cc(C(=O)NCc4ncn5ccc(Cl)c(F)c45)nn3)nc12 [Example I-228, N-((7-chloro-8-fluoroimidazo[1,5-a]pyridin-1-yl)methyl)-1-((6-cyclopropyl-8-ethynylimidazo[1,2-a]pyridin-2-yl)methyl)-1H-1,2,3-triazole-4-carboxamide]",< 1
